This is an account of results in patent US7462630B2, “Diarylalkene derivatives and novel diarylalkane derivatives” (Ajinomoto Co., Inc., priority 2001, dated 2008).

Experiment [1] addresses T1, L-type calcium channel (Rattus norvegicus, UniProt P22002).
T1 construct: relaxation response against the KCl-induced contraction of isolated rat thoracic aorta was employed; from tissue; host or cells: endothelium-denuded thoracic aorta rings of Wistar rat
The experiment in a line: Antagonistic activity on L-type calcium channel (relaxation response against KCl-induced contraction of isolated rat thoracic aorta). The note with it: read-out: Antagonistic action on L-type calcium channels pIC50 (converted). The method, then:
The antagonistic activity of the new diarylalkene derivatives and diarylalkane derivatives of the present invention to inhibit L-type calcium channel was determined by the following method in which the relaxation response against the KCl-induced contraction of isolated rat thoracic aorta was employed.
The slips of thoracic aorta isolated from a Wistar rat were used. The aorta was cut to obtain ring-shaped samples having a width of about 3 mm. The endothelial cells of the samples were mechanically removed. The samples were suspended in a strain gage in Tyrode's solution (158.3 mM of NaCl, 4.0 mM of KCl, 1.05 mM of MgCl2, 0.42 mM of NaH2PO4, 10 mM of NaHCO3, 2 mM of CaCl2 and 5 mM of glucose) in which a gaseous mixture of O2 (95%) and CO2 (5%) was introduced. A static tension of 2 g was applied thereto. The tension of the blood vessel was amplified with a transducer and a tension amplifier (EF-601G; Nihon Koden Corporation) and recorded with a multi-pen recorder (Rikadenki Kogyo Co., Ltd.). The experiments were conducted at 37° C.
After the tension had been stabilized, the nutrient solution in the sample tank was replaced with High K^+ Tyrode's solution (112.3 mM of NaCl, 50 mM of KCl, 1.05 mM of MgCl2, 0.42 mM of NaH2PO4, 10 mM of NaHCO3, 2 mM of CaCl2 and 5 mM of glucose) to conduct the contraction reaction. Thirty minutes after, the solution in the sample tank was replaced with the normal Tyrode's solution. The solution in the sample tank was again replaced with the High K^+ Tyrode's solution and the contraction reaction was observed. After attaining the maximum contraction reaction, the test compound was cumulatively added at intervals of 90 minutes to attain concentrations of 10^−9, 10^−8, 10^−7 and 10^−6 M. The inhibitory rate of the test compound against the maximum contraction response was employed as the index of the antagonistic activity on L-type calcium channels.
The value of pIC50 indicates the antagonistic activity of the test compound, i. e. the negative logarithm of the concentration of the test compound necessitated for the 50% inhibition.

Experiment [2] has as its target T2, N-type calcium channel (Homo sapiens, UniProt Q00975).
T2 construct: host or cells: IMR-32 human neuroblastoma cells, differentiated with dibutyl cAMP and 5-bromodeoxyuridine
Put plainly: Antagonistic activity on N-type calcium channel (fluorescence dye method, KCl-stimulated intracellular calcium change in IMR-32 cells with 1 μM Nifedipine). In kind it is cell-based. The note with it: 10 μM test compound, 60 mM KCl stimulation, read-out: Antagonistic activity on N-type calcium channels at 10 μM inhibition rate (%). The method, then: Human neuroblastoma cells IMR-32 were obtained from ATCC (American Type Culture Collection). The medium used was a Phenol Red-free Eagle minimum essential medium containing earle's salts (GIBCO) supplemented with 2 mM of L-glutamine (GIBCO), 1 mM of sodium pyruvate (pH 6.5) (GIBCO), antibiotic/antimycotic mixture (GIBCO) and 10% fetal calf serum (Cell Culture Technologies). Three ml of 1×10^5 cells/ml IMR-32 cells were spread on the glass bottom of a dish (Iwaki Glsss Co., Ltd.) having a diameter of 35 mm which had been treated with poly-L-lysin (SIGMA) and collagen (COLLAGEN VITROGEN 100; Collagen Co.). After the culture for 1 day, 1 mM (final concentration) of dibutyl cAMP and 2.5 μM (final concentration) of 5-bromodeoxyuridine (SIGMA) were added. After the culture for additional 10 to 14 days, the cells were subjected to the activity determination.
The medium for IMR-32 cells thus prepared was replaced with 1 ml of Phenol Red-free Eale minimum essential medium (GIBCO) containing 2.5 μM fura-2/AM (Dojin Kagaku, Co.) and earle's salts supplement, and the incubation was conducted at 37° C. for 30 minutes. Then the medium was replaced with a recording medium (20 mM of HEPES-KOH, 115 mM of NaCl, 5.4 mM of KCl, 0.8 mM of MgCl2, 1.8 mM of CaCl2 and 13.8 mM of D-glucose). Antagonistic activity on N-type calcium channel was determined and analyzed using a fluorescence microscope (Nikon Corporation) and an image analysis device ARGUS 50 (Hamamatsu Photonics). In particular, a recording medium (20 mM of HEPES-KOH, 115 mM of NaCl, 5.4 mM of KCl, 0.8 mM of MgCl2, 1.8 mM of CaCl2 and 13.8 mM of D-glucose) containing 1 μM of Nifedipine was given to the cells by reflux by a Y-tube method for 2 minutes. Then a stimulating agent containing 60 mM of potassium chloride was rapidly given by the Y-tube method. The calcium concentration change in the cells in this step was shown as the N-type calcium channel activity. Then stimulating agents containing 60 mM of potassium chloride and 0.1, 1 or 10 μM of the test compound were successively and rapidly given to the cells by the Y-tube method to determine the change in the intracellular calcium concentration. The antagonistic activity on N-type calcium channel was calculated from the inhibition rate (%) at a concentration of 10 μM.
(In general: Calcium flux is commonly read through the fluorescence of an indicator in the cells.)

T2 sequence (Q00975 whole entry): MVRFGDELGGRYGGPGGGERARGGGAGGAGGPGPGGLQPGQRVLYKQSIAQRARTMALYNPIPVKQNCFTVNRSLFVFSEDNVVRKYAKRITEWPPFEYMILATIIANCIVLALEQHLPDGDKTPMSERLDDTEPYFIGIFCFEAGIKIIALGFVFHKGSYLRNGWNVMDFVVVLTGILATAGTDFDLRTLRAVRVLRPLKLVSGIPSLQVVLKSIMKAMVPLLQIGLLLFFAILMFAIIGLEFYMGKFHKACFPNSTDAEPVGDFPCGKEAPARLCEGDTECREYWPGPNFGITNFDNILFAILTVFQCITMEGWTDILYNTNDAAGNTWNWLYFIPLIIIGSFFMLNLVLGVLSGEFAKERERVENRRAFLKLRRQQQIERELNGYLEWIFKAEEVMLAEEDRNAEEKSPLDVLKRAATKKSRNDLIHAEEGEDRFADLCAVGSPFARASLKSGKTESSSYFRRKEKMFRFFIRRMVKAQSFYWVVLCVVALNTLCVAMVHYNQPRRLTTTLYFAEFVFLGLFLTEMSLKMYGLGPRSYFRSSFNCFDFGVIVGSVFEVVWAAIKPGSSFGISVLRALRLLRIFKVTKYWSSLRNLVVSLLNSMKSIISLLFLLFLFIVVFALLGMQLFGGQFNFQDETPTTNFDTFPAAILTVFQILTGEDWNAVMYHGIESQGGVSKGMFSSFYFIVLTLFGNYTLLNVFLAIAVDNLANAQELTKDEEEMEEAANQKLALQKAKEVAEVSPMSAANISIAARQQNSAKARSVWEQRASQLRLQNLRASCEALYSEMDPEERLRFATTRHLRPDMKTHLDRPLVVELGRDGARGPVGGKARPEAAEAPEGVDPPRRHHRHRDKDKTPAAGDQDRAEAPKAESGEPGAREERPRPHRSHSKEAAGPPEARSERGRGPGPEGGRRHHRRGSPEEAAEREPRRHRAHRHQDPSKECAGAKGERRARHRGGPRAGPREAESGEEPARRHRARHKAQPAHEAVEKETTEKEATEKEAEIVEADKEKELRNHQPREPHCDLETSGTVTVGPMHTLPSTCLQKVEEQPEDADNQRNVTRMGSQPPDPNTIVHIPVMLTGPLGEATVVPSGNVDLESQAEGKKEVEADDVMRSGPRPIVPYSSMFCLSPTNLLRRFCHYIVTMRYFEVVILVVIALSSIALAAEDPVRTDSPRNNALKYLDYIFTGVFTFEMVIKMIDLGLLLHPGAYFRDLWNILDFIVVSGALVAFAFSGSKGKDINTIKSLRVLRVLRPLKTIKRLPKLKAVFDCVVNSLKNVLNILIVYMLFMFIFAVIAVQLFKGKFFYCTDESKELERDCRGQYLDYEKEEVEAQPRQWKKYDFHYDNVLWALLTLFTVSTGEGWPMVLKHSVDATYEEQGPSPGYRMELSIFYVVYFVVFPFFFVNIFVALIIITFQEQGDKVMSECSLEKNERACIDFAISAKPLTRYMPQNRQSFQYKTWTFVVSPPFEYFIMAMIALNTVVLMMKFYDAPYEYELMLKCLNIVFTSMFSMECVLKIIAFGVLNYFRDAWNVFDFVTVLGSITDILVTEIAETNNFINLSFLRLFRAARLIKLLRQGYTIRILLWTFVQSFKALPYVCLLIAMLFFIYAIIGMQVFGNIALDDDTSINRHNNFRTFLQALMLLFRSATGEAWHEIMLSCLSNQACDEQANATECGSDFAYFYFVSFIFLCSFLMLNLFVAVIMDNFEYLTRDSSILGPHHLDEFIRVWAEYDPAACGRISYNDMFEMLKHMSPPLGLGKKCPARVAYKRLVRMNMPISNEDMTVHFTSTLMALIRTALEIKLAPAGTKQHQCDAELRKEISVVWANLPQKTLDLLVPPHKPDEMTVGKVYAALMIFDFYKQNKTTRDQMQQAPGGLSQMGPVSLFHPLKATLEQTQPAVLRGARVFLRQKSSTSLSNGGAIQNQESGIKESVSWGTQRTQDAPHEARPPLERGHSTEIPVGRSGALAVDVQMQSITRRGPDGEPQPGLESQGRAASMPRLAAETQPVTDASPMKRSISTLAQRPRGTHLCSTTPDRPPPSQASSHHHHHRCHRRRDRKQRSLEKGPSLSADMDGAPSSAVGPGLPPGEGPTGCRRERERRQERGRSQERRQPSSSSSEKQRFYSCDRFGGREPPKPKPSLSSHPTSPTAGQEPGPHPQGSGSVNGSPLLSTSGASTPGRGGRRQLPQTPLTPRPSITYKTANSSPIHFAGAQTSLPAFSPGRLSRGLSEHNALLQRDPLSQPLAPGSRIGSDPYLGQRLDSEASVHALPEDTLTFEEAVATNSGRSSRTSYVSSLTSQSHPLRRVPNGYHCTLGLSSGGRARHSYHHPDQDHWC
T2 sequence (P54284 whole entry partner): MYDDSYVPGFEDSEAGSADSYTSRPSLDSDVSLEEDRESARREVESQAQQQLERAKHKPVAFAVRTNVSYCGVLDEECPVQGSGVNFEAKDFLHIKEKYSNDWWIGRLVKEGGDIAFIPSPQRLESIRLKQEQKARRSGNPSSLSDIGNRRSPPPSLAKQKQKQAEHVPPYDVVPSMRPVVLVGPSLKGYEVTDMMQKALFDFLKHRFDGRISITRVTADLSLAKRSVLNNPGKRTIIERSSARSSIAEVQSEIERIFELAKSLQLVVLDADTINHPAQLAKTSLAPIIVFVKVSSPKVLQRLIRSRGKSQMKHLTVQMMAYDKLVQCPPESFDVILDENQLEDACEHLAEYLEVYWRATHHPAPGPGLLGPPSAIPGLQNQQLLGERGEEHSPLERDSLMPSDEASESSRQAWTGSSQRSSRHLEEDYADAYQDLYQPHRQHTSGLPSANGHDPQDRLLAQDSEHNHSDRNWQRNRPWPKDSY
T2 sequence (P54289 25-956 partner limits assumed): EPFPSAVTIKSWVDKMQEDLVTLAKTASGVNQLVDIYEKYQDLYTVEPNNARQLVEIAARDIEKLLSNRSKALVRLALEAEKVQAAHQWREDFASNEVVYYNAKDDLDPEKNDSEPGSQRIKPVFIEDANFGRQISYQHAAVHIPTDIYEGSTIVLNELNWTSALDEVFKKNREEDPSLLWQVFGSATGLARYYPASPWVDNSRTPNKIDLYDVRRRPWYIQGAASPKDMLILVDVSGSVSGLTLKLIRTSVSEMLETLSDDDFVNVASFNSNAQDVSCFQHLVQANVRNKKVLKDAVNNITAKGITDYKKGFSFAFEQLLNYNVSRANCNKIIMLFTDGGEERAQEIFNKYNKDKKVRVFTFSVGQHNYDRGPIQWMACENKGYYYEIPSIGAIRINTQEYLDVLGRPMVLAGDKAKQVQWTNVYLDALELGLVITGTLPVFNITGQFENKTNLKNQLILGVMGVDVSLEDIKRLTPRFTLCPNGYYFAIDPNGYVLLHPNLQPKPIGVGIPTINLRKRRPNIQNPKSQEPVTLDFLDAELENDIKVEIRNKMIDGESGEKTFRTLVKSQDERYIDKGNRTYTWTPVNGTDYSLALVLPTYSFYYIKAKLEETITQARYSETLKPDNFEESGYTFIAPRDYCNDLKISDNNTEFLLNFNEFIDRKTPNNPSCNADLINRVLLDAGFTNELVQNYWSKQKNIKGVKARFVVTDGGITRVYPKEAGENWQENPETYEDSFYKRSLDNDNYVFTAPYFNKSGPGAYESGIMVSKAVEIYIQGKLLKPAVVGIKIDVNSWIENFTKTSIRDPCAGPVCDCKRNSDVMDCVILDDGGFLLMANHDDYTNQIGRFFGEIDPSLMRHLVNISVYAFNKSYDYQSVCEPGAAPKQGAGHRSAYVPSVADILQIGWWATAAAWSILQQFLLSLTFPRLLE
T2 sequence (P54289 957-1103 partner limits assumed): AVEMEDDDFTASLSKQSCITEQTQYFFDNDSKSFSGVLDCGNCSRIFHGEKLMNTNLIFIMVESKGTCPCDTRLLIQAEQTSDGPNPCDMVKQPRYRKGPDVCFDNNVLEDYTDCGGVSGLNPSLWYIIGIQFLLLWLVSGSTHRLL

Regarding `CC(C)(C)OC(=O)NCC(=O)N1CCC(=C2c3ccccc3C=Cc3ccccc32)CC1` [Example 1, t-butyl 2-[4-(5H-dibenzo[a,d][7]annulen-5-ylidene)-1-piperidinyl]-2-oxoethylcarbamate], in experiment [1], the IC50 is 1 µM. Further, in experiment [2], the inhibition at 10 µM came out at 67%.
In the same order, the values of `CC(C)(C)NC(=O)CCC(=O)N1CCC(=C2c3ccccc3C=Cc3ccccc32)CC1` [Example 9, N-(t-butyl)-4-[4-(5H-dibenzo[a,d][7]annulen-5-ylidene)-1-piperidinyl]-4-oxobutanamide] are 0.501 µM and 83%.
For the compound `CC(C)(C)OC(=O)NCC(=O)N1CCC(=C2c3ccccc3CCc3ccccc32)CC1` [Example 16, t-butyl 2-[4(10,11-dihydro-5H-dibenzo[a,d][7]annulen-5-ylidene)-1-piperidinyl]-2-oxoethyl carbamate], the IC50 in experiment [1] is 1.26 µM. For the same compound, the inhibition at 10 µM in experiment [2] came out at 75%.
Turning to `CC(C)(C)OC(=O)NCC(=O)N1CCC(=C2c3ccccc3CSc3ccccc32)CC1` [Example 24, t-butyl 2-(4-dibenzo[b,e]thiepin-11(6H)-ylidene-1-piperidinyl)-2-oxoethylcarbamate], the IC50 in experiment [1] was 1 µM. The inhibition at 10 µM in experiment [2] was 78%.
Consider `CC(C)(C)OC(=O)NCCCNC(=O)C=C1c2ccccc2C=Cc2ccccc21` [Example 41, t-butyl 3-[(5H-dibenzo[a,d][7]annulen-5-ylidenacetyl)amino]-propylcarbamate], for which the IC50 in experiment [1] is 1.26 µM. Besides, the inhibition at 10 µM in experiment [2] is 76%.
Take `CC(C)(C)OC(=O)N[C@@H](CO)CC(=O)N1CCC(=C2c3ccccc3C=Cc3ccccc32)CC1` [Example 68, (R)-t-butyl 3-[4-(5H-dibenzo[a,d][7]annulen-5-ylidene)-1-piperidinyl]-1-(hydroxymethyl)-3-oxopropylcarbamate]: in experiment [1], the IC50 is 0.398 µM. The inhibition at 10 µM in experiment [2] stood at 82%.
On to `CC(C)(C)C(=O)N[C@@H](CO)CCC(=O)N1CCC(=C2c3ccccc3C=Cc3ccccc32)CC1` [Example 72, (R)-N-[4-[4-(5H-dibenzo[a,d][7]annulen-5-ylidene)-1-piperidinyl]-1-(hydroxylmethyl)-4-oxobutyl]-2,2-dimethylpropanamide], for which the IC50 in experiment [1] was 0.794 µM. For the same compound, in experiment [2], the inhibition at 10 µM was found to be 81%.
In the same order, the values of `CCOC(=O)N[C@@H](CO)CC(=O)N1CCC(=C2c3ccccc3C=Cc3ccccc32)CC1` [Example 73, (R)-ethyl3-[4-(5H-dibenzo[a,d][7]annulen-5-ylidene)-1-piperidinyl]-1-(hydroxymethyl)-3-oxopropylcarbamate] are 2 µM and 75%.
Take `CC(C)(C)OC(=O)N[C@@H](CO)CC(=O)N1CCC(=C2c3ccccc3Sc3ccccc32)CC1` [Example 76, tert-butyl (1R)-1-(hydroxymethyl)-3-oxo-3-[4-(9H-thioxanthen-9-ylidene)-1-piperidinyl]propylcarbamate]: in experiment [1], the IC50 was 0.794 µM. For the same compound, the inhibition at 10 µM in experiment [2] was 85%.
In the same order, the values of `CC(C)(C)C(=O)N[C@H](CO)CCC(=O)N1CCC(=C2c3ccccc3CCc3ccccc32)CC1` [Example 78] are 2.51 µM and 84%.

As usually defined, the inhibition is the percentage by which the read-out fell short of the control.
